# Reference: patent US20230139506A1, “HETEROCLITIC CANCER VACCINES” (MEMORIAL SLOAN KETTERING CANCER CENTER, priority 2020, published 2023)
# T1: H-2Kb (Mus musculus, UniProt P01901)
# T1 construct: its ability to stabilize MHC-I in the H-2Kb-expressing TAP-deficient RMA/S cell line; endogenous in cells; host or cells: RMA/S cells (murine, TAP-deficient)
# T1 sequence (P01901 22-369): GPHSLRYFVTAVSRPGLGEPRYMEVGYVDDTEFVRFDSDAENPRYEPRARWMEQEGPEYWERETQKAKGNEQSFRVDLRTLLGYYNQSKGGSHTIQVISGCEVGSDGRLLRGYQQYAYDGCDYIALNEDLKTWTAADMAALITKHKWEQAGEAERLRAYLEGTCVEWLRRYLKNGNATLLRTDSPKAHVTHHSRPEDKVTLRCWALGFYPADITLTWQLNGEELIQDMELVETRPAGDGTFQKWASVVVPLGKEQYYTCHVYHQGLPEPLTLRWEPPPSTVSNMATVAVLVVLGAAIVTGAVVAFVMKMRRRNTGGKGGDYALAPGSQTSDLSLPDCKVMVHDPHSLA
# T1 sequence (P01887 21-119 partner): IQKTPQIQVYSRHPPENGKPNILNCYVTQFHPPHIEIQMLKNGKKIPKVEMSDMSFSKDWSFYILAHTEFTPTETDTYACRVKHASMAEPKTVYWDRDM
# T2: murine H-2Kb on TAP-deficient RMA/S cells (murine, UniProt P01887 21-119; P01901 22-305)
# T2 construct: whole, on cells;extracellular; MHC class I molecule; surface level read with antibody clone AF6-88.5 by flow cytometry
# T2 sequence (MHC heavy, looked up): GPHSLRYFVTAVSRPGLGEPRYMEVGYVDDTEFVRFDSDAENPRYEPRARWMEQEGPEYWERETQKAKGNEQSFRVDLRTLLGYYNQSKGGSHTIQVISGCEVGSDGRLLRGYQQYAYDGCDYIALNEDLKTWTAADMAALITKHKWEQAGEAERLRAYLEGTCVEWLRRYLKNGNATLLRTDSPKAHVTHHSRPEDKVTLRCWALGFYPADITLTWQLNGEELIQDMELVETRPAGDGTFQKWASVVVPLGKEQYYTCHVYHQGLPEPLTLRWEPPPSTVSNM
# T2 sequence (b2m, looked up): T1 sequence (P01887 21-119 partner)
# B1: chicken ovalbumin (OVA)-derived peptide SIINFEKL (peptide)
# peptide: SIINFEKL
# notes: Custom order from Genscript
# B2: CALR9p2(T5F) heteroclitic peptide (RMMRFKMRM) (peptide)
# peptide: RMMRFKMRM
# notes: Custom synthetic peptide
# Assays:
# H-2Kb = target: T1, H-2Kb; assay: MHC-I stabilization assay using TAP-deficient RMA/S cells; assay type: cell-based, murine
# Method: (§1) To test peptide binding to murine H-2Kb or human HLA-A*02:01, TAP-deficient RMA/S and T2 cells were used, respectively, as previously reported (59, 60). […] T2 cells (62) were serum-starved in serum-free RPMI media overnight and […] at indicated final concentrations for 16 hours before measuring HLA-A*02:01 levels by flow cytometry (BD; Clone BB7.2). The […] (SEQ ID NO. 287) peptide was acquired as a custom order from Genscript.
# C57BL/6J mice = assay: Peptide immunization (Titermax adjuvant) and IFNγ ELISpot of CD8+ T cells from draining lymph nodes; assay type: in vivo, mouse; details: for CALR9p2-specific CD8+ T cell response: peptide emulsified in Titermax adjuvant, secondary restimulation with CALR9p2
# Method: (§2) All peptides were purchased as custom peptide synthesis orders from GenScript at a purity of >98% and resuspend at 10 mg/mL in DMSO (Sigma). For peptide vaccines, peptides were diluted in PBS and emulsified with Titermax® (Titermax USA, Inc) at a 1:1 ratio immediately prior to immunization, such that each dose was composed of 10 μg peptide in a total volume of 25 uL. In control (DMSO) immunization, an equivalent volume of DMSO is substituted for the diluted peptide in the TiterMax® emulsion. For subsequent in vitro assays, draining inguinal and popliteal lymph nodes were collected at indicated time points and CD8+ T cells were isolated using positive magnetic sorting using mouse CD8a (Ly-2) MicroBeads (Miltenyi Biotec). DNA vaccines were performed using a gene gun as previously described (27, 63) according to indicated time points. Briefly, mice received four injections (400 lbs/inch2) of DNA-coated gold particles into the abdominal region of the skin for a total 4 μg of DNA per dose. DNA plasmids encoding the wildtype or 52 base-pair deletion CALRMUT sequences fused with the flag sequence are as previously described (64). For pING-OVA, the full-length chicken ovalbumin sequence was cloned into the pING plasmid (65). CD8+ T cells were collected as before, but only from draining inguinal lymph nodes. To test for antigen-specificity, the mouse IFNγ ELISpot set (BD) was used according to the manufacturer's instructions. Briefly, CD8+ T cells were frozen immediately after purification in FBS containing 10% DMSO, thawed one day prior to restimulation and allowed to recover overnight in 20 U/mL IL-2 (Peprotech) RPMI-1640 medium containing 10% fetal bovine serum (FBS), Na-Pyruvate, L-glutamine and Penicillin/Streptomycin. As a source of antigen-presenting cells (APCs), splenocytes from naïve mice were depleted of T cells using magnetic microbeads for CD8a (Ly2) and CD4 (L3T4) (Miltenyi Biotec), pulsed for one hour with 100 μg/mL peptide at 37° C. followed by a wash. For each well, 105 CD8+ T cells were co-culture with 1×105-3×105 peptide-pulsed APCs and incubated for approximately 18 hours. Spots were counted using the ImmunoSpot analyzer (Cellular Technology Limited).
# peptide-pulsed B16 cells = assay: Killing assay of peptide-pulsed B16 cells by CD8+ T cells isolated from peptide-immunized mice; assay type: cell-based, mouse; details: CD8+ T cells from mice immunized with a single dose
# CD8+ T cells = assay: CALR9p2(T5F)-tetramer staining and flow cytometry of CD8+ T cells from immunized mice; assay type: in vivo, mouse
# RMA/SpER-CALR9p2 tumors = assay: Tumor growth experiments with RMA/SpER-CALR9p2 tumors; assay type: in vivo, mouse
# Method: as §2
# RMA/S cells were maintained in RPMI 1640 medium supplemented with 7.5% inactivated FBS, 1×non-essential amino acids and 2 mM L-glutamine. The DNA sequence encoding the CALR9p2 peptide (bold) was cloned into the PresentER-IRES-GFP (38) construct using the following oligo:
# following SfiI digestion and T4 ligation (New England Biolabs). The resulting construct was used to generate retrovirus by co-transfection with pCL-Ampho into ecotropic Pheonix cells (ATCC). Viral supernatants were collected at 48 and 72 hours, pooled and Retro-X Concentrator (Takara Bio USA)-concentrated retrovirus was used to transduce RMA/S cells by spinoculation using polybrene (Sigma). GFP-positive cells were FACS sorted (BD FACSAria III) and cultured in 4 μg/mL puromycin (Gibco) media. A total of 5×10^6 cells were injected subcutaneously in the flank of mice. For anti-PD1 treatment, 250 μg of RMP1-14 was injected intra-peritoneally in PBS at indicated time points.
# HLA-A*02:01 = target: T3, HLA-A*02:01 (Homo sapiens, UniProt P04439, D140Y/D185E/D98H/E176V/E277Q/G131W/G231S/I119V/I121R/I166T/I218V/L300P/L318F/N151K/N90K/P208A/P217A/Q86G/Q94H/R138H/R169H/T345S); assay: MHC-I stabilization assay using human TAP-deficient T2 cells; assay type: cell-based; details: flow cytometry
# T3 construct: endogenous in cells; host or cells: T2 cells (human, TAP-deficient)
# Method: as §1
# [1] = test system: PBMCs from healthy HLA-A*02:01 individuals; assay: Human PBMC in vitro restimulation, IFNγ+ CD8+ T cells by intracellular staining; assay type: cell-based; details: six healthy donors; significant (P<0.05) or trending (P<0.30)
# Method: Freshly isolated or thawed cryopreserved healthy donor PBMCs were restimulated with cytokines and peptides as previously described (14). Briefly, on day 0, PBMCs were resuspended in X-VIVO15 media (Lonza) and seeded at 105 per well of a 96 U-bottom plate with 1000 IU/mL GM-CSF (Sanofi), 500 IU/mL IL-4 (R&D Systems) and 50 ng/mL Flt3L (R&D Systems). On day 1, media was refreshed with 0.1 μg/mL LPS (Invivogen), 10 μM R848 (Invivogen), 5 μg/mL IL-10 (R&D Systems) and 1 μg/mL of indicated peptides, and incubated for 24 hours. The CMV, EBV, Flu, Tetanus (CEFT) and the myelin oligodendrocyte glycoprotein (MOG) peptide pools (JPT Technologies) were used as positive and negative controls, respectively. On days 2 and 5, half the media was refreshed with RPMI (Gibco) containing 10% human serum (Gemini Bio-Products), 10 ug/ml gentamycin (Gibco), HEPES (Gibco), GlutaMAX (Gibco) and hIL-2 and hIL-7 to a final concentration of 10 IU/mL and 10 ng/mL, respectively (R&D Systems). On day 8, the media was refreshed without cytokines. On day 10, PBMCs were restimulated with corresponding peptides in the presence of 1 μg/mL of anti-hCD28 and anti-hCD49d (BD Biosciences). As controls, some cells were stimulated with PMA (Sigma-Aldrich, 50 ng/mL) and ionomycin (Sigma-Aldrich, 1 μg/mL). […] Data was acquired using the BD Fortessa and the data was analyzed on FlowJo V10 (TreeStar). […]
# [2] = target: T2, murine H-2Kb on TAP-deficient RMA/S …; assay: H-2Kb stabilization assay on RMA/S cells, flow cytometry
# [3] = target: T2, murine H-2Kb on TAP-deficient RMA/S …; assay: H-2Kb stabilization assay on RMA/S cells in absence of serum, flow cytometry
# From the text: To test peptide binding to murine H-2Kb or human HLA-A*02:01, TAP-deficient RMA/S and T2 cells were used, respectively, as previously reported (59, 60).
# [4] = initial CALR9p2(T5F) followed by two CALR9p2 boosts
# [5] = two doses of CALR9p2(T5F) and a final CALR9p2 boost
# [6] = prophylactic: three doses prior to tumor implantation, vs adjuvant alone
# [7] = therapeutic: multiple doses after tumors allowed to grow, vs adjuvant alone
molecule,measurement,setting,value
"SIINFEKL [chicken ovalbumin (OVA)-derived peptide, positive control]",H-2Kb stabilization,H-2Kb; in the presence of serum,strong binding
RMMRFKMRM [CALR9p2(T5F)],fold H-2Kb stabilization compared to CALR9p2,H-2Kb; absence of serum,tenfold
same,CD8+ T cell response to CALR9p2(T5F),C57BL/6J mice; [4],very small response to the CALR9p2(T5F) peptide
same,cross-reactive CD8+ T cell response to CALR9p2,C57BL/6J mice; [4],no detectable cross-reactive CD8+ T cell responses to CALR9p2 in vitro
same,CALR9p2-specific CD8+ T cell response,C57BL/6J mice,elicited a CD8+ T cell capable of cross-reacting with CALR9p2 in vitro
same,CD8+ T cell response to CALR9p2(T5F),C57BL/6J mice; [5],intermediate response to CALR9p2(T5F)
same,cross-reactive CD8+ T cell response to CALR9p2,C57BL/6J mice; [5],no detectable cross-reactive CD8+ T cells
same,killing of tumor cells pulsed with the CALR9p2 peptide,peptide-pulsed B16 cells,killing tumor cells pulsed with the CALR9p2 peptide
same,IFNγ restimulation by CALR9p2 of CALR9p2(T5F)-tetramer-specific CD8+ T cells,CD8+ T cells; CD8+ T cells from CALR9p2(T5F)-immunized mice,The only CALR9p2-potentiated CD8+ T cells were those also staining for the CALR9p2(T5F)-tetramer
same,Tim3 and Pd1 levels of CALR9p2-specific vs CALR9p2(T5F)-specific CD8+ T cells,CD8+ T cells; after restimulation,equal levels of Tim3 and Pd1
same,survival,RMA/SpER-CALR9p2 tumors; prophylactic: three doses prior to tumor implantation,differences in survival were not significant
same,tumor growth,RMA/SpER-CALR9p2 tumors; [6],grew significantly slower
same,effect of the vaccine,"RMA/SpER-CALR9p2 tumors; therapeutic, administered with immune checkpoint blockade using a PD-1 antibody",even more prominent
same,survival,RMA/SpER-CALR9p2 tumors; [7],improved survival
same,tumor growth,RMA/SpER-CALR9p2 tumors; [7],tumors grew significantly slower
"RMMRTKMRM [CALR9p2, 9mer CALRMUT peptide starting at position 2, parental native peptide]",binding to HLA-A*02:01 (stabilization),HLA-A*02:01,weak binding signal compared to DMSO control
same,CD8+ T cell responses (IFNγ) to CALR9p2 alone,[1],three of the six healthy donors
same,H-2Kb stabilization,H-2Kb; in the presence of serum,did not elicit detectable H-2Kb stabilization
same,H-2Kb stabilization,H-2Kb; serum omitted,poor but still detectable binding
same,peptide concentration at which H-2Kb was stabilized,"H-2Kb; serum omitted, only the highest concentration",100 µg/mL
same,CALR9p2-specific CD8+ T cell response,C57BL/6J mice,did not elicit any CALR9p2-specific CD8+ T cell response
same,tumor growth,RMA/SpER-CALR9p2 tumors; [6],grew at the same rate
B1,binding result,[2],binds
B2,fold H-2Kb stabilization compared to CALR9p2,[3],~10 fold
